Structures are written as SMILES.

For this assay, the target named is T1, IDO1 (Homo sapiens, UniProt P14902).
T1 construct: HeLa cells were treated with a test compound in the presence of IFNγ, which induces IDO1 expression; endogenous in cells; host or cells: H1-HeLa cells (ATCC #CRL-1958), induced with IFNγ
T1 sequence (P14902 whole entry): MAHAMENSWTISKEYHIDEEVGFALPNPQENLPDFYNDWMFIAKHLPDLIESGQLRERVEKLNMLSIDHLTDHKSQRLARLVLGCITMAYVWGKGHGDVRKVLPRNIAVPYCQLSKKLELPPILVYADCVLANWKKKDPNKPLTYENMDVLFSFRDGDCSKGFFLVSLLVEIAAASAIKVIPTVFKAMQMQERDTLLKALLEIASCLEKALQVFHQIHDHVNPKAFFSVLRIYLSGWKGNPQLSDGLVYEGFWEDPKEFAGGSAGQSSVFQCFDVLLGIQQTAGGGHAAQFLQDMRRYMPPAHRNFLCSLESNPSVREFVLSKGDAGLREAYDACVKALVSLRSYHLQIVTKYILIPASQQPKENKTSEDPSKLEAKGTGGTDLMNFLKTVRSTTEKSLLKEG
Description: Cell-based (HeLa) assay for measurement of IDO1 inhibition (kynurenine levels in supernatant after IFNγ induction). Particulars: H1-HeLa cells, IFNγ-induced IDO1, 48 hour incubation, kynurenine absorbance at 480 nm; geometric mean of a minimum of four determinations. Here is the method:
To measure IDO1 inhibition in tissue culture, HeLa cells were treated with a test compound in the presence of IFNγ, which induces IDO1 expression. Following incubation, cell supernatants were assayed for kynurenine levels, an indicator of IDO1 activity.
H1-HeLa cells (ATCC #CRL-1958) were seeded in 384-well plates (Greiner #82051-282) at a volume […] (Corning #15-018-CM) supplemented with 10% FBS (Corning #35-011-CV) and 1% P/S/G (Corning #30-009-CL) at a density of 1,250 cells/well and incubated overnight at 37° C., 5% CO2/100% humidity. The following day, the test compounds were added in DMSO (0.5% final) at various concentrations, and IDO1 was inducibly expressed by the addition of 50 uL/well of 50 ng/mL of INFγ(Peprotech #300-02) in cell plating media. As a positive control, 50 uL of the cell plating media without IFNγ was added to several wells. Following a 48 hour incubation, the plates were spun down at 1,200 RPM for 5 min at 10° C. 65 μL/well of the supernatant was then transferred to new 384-well plates (Thermo #262160) that contained 10 uL/well of 30% TCA (Sigma #T0699), and the plates were sealed and incubated at 60° C. for 30 min. The plates were then centrifuged for 15 min at 2,000 RPM at 10° C. 40 μL/well of the supernatant was transferred to new 384-well plates (Thermo #262160) and was reacted with 40 μL/well of 2% (w/v) p-dimethylaminobenzaldehyde (Sigma #156417) in glacial acetic acid (Sigma #A6283). The reaction was incubated at room temperature for 10 min and absorbance at 480 nm was read using a PerkinElmer Envision plate reader.
Data in Table 1 were normalized based on positive (−IFNγ) and negative (+IFNγ) controls and EC50 values were calculated from the fit of the dose-response curves to a four-parameter equation. All EC50 values represent geometric mean values of a minimum of four determinations. These assays generally produced results within 2-fold of the reported mean.
The EC50 is the concentration at which the effect is half-maximal. A high value points to lower potency in that assay. Molecule `O=C(Nc1ccc(F)cc1)c1cc(-c2cccn3c(-c4cccnc4)ncc23)ccc1C(F)(F)F` [Example 31, N-(4-fluorophenyl)-5-(3-(pyridin-3-yl)imidazo[1,5-a]pyridin-8-yl)-2-(trifluoromethyl)benzamide] came in with an EC50 of 38.3 nM.

The molecule `O=C(Nc1ccc(F)cc1)c1cc(-c2cccn3c(-c4cc[nH]n4)ncc23)ccc1C(F)(F)F` [Example 32, 5-(3-(1H-pyrazol-3-yl)imidazo[1,5-a]pyridin-8-yl)-N-(4-fluorophenyl)-2-(trifluoromethyl)benzamide] gave an EC50 of 34.9 nM.

As for `O=C(Nc1ccc(F)cc1)c1cc(-c2cccn3c(-c4ccccn4)ncc23)ccc1C(F)(F)F` [Example 33, N-(4-fluorophenyl)-5-(3-(pyridin-2-yl)imidazo[1,5-a]pyridin-8-yl)-2-(trifluoromethyl)benzamide], the EC50 came out at 31.1 nM.

`Cc1ccc(-c2cccn3c(-c4cccc(F)c4F)ncc23)cc1C(=O)Nc1ccc(F)cc1` [Example 34, 5-(3-(2,3-difluorophenyl)imidazo[1,5-a]pyridin-8-yl)-N-(4-fluorophenyl)-2-methylbenzamide] returned an EC50 of 29.4 nM.

With `Cc1ncc(-c2cccn3c(-c4cccc(F)c4)ncc23)cc1C(=O)Nc1ccc(F)cc1` [Example 35, N-(4-fluorophenyl)-5-(3-(3-fluorophenyl)imidazo[1,5-a]pyridin-8-yl)-2-methylnicotinamide], the EC50 was 26.8 nM. The EC50 values of the last two molecules are within 1.5-fold of each other.

`O=C(Nc1ccc(F)cc1)c1cc(-c2cccn3c(-c4cnccn4)ncc23)ccc1C(F)(F)F` [Example 36]: the response was half-maximal at 25.2 nM (EC50).

`Cc1ccc(-c2cccn3c(-c4ncccn4)ncc23)cc1C(=O)Nc1ccc(F)cc1` [Example 37, N-(4-fluorophenyl)-2-methyl-5-(3-(pyrimidin-2-yl)imidazo[1,5-a]pyridin-8-yl)benzamide]: a half-maximal effect (EC50) was put at 24.2 nM. This EC50 and that of the molecule before are within 1.5-fold of each other.

Molecule `O=C(Nc1ccc(F)cc1)c1nc(-c2cccn3c(-c4cccc(F)c4F)ncc23)ccc1C(F)(F)F` [Example 38, 6-(3-(2,3-difluorophenyl)imidazo[1,5-a]pyridin-8-yl)-N-(4-fluorophenyl)-3-(trifluoromethyl)picolinamide] came in with an EC50 of 23.8 nM.

In turn, `O=C(Nc1ccc(F)cc1)c1cc(-c2cccn3c(-c4cccc(F)c4)ncc23)ccc1C(F)(F)F` [Example 39, N-(4-fluorophenyl)-5-(3-(3-fluorophenyl)imidazo[1,5-a]pyridin-8-yl)-2-(trifluoromethyl)benzamide] yielded an EC50 of 23.3 nM.

As for `Cc1ccc(-c2cccn3c(-c4ncco4)ncc23)cc1C(=O)Nc1ccc(F)cc1` [Example 40, N-(4-fluorophenyl)-2-methyl-5-(3-(oxazol-2-yl)imidazo[1,5-a]pyridin-8-yl)benzamide], the EC50 amounted to 23.1 nM.

With `O=C(Nc1ccc(F)cc1)c1cc(-c2cccn3c(-c4cccc(F)c4F)ncc23)ccc1C(F)F` [Example 41, 2-(difluoromethyl)-5-(3-(2,3-difluorophenyl)imidazo[1,5-a]pyridin-8-yl)-N-(4-fluorophenyl)benzamide], a half-maximal response (EC50) required 19.8 nM.

`Cc1ccc(-c2cccn3c(-c4cccc(F)c4F)ncc23)c(F)c1C(=O)Nc1ccc(F)cc1` [Example 42, 3-(3-(2,3-difluorophenyl)imidazo[1,5-a]pyridin-8-yl)-2-fluoro-N-(4-fluorophenyl)-6-methylbenzamide] showed an EC50 of 17.7 nM.

Turning to `Cc1ncc(-c2cccn3c(-c4cccc(F)c4F)ncc23)cc1C(=O)Nc1ccc(F)cc1` [Example 43, 5-(3-(2,3-difluorophenyl)imidazo[1,5-a]pyridin-8-yl)-N-(4-fluorophenyl)-2-methylnicotinamide], the response was half-maximal at 17.2 nM (EC50).

In the case of `Cc1nc(-c2cccc(F)c2F)n2cccc(-c3ccc(C(F)(F)F)c(C(=O)Nc4ccc(F)cc4)c3)c12` [Example 44, 5-(3-(2,3-difluorophenyl)-1-methylimidazo[1,5-a]pyridin-8-yl)-N-(4-fluorophenyl)-2-(trifluoromethyl)benzamide], the EC50 came to 16.9 nM.

In turn, `O=C(Nc1ccc(F)cc1)c1cc(-c2cccn3c(-c4ncccn4)ncc23)ccc1C(F)(F)F` [Example 45] registered an EC50 of 16.4 nM.

In turn, `O=C(Nc1ccc(F)cc1)c1cc(-c2cccn3c(-c4ncco4)ncc23)ccc1C(F)(F)F` [Example 46, N-(4-fluorophenyl)-5-(3-(oxazol-2-yl)imidazo[1,5-a]pyridin-8-yl)-2-(trifluoromethyl)benzamide] came in with an EC50 of 16.1 nM.

As for `O=C(Nc1ccc(F)cc1)c1cc(-c2cccn3c(-c4cccc(F)c4F)ncc23)cnc1C(F)(F)F` [Example 47, 5-(3-(2,3-difluorophenyl)imidazo[1,5-a]pyridin-8-yl)-N-(4-fluorophenyl)-2-(trifluoromethyl)nicotinamide], the EC50 came out at 16 nM.

`O=C(Nc1ccc(F)cc1)c1cc(-c2cccn3c(-c4cccc(F)c4F)ncc23)ccc1C(F)(F)F` [Example 48, 5-(3-(2,3-difluorophenyl)imidazo[1,5-a]pyridin-8-yl)-N-(4-fluorophenyl)-2-(trifluoromethyl)benzamide] came in with an EC50 of 15.9 nM. The EC50 values of the last two molecules are within 1.5-fold of each other.

As for `Cc1ncc(-c2cccn3c(-c4ccccc4F)ncc23)cc1C(=O)Nc1ccc(F)cc1` [Example 49, N-(4-fluorophenyl)-5-(3-(2-fluorophenyl)imidazo[1,5-a]pyridin-8-yl)-2-methylnicotinamide], the EC50 is 15.7 nM.

On to `Cc1ncc(-c2ccnn3c(-c4cccc(F)c4F)nnc23)cc1C(=O)Nc1ccc(F)cc1` [Example 50, 5-(3-(2,3-difluorophenyl)-[1,2,4]triazolo[4,3-b]pyridazin-8-yl)-N-(4-fluorophenyl)-2-methylnicotinamide], for which the EC50 was 1890 nM.

The molecule `Cc1ccc(-c2nccn3c(-c4cccc(F)c4F)ncc23)cc1C(=O)Nc1ccc(F)cc1` [Example 51, 5-(3-(2,3-difluorophenyl)imidazo[1,5-a]pyrazin-8-yl)-N-(4-fluorophenyl)-2-methylbenzamide] returned a concentration for a half-maximal effect (EC50) of 656 nM.

As for `Cc1ccc(-c2nccn3c(-c4ccccc4C)ncc23)cc1C(=O)Nc1ccc(F)cc1` [Example 52, N-(4-fluorophenyl)-2-methyl-5-(3-(o-tolyl)imidazo[1,5-a]pyrazin-8-yl)benzamide], the half-maximal effective concentration (EC50) was 3110 nM.

`Cc1cccc(-c2ncc3c(-c4ccc(C)c(C(=O)Nc5ccc(F)cc5)c4)nccn23)c1` [Example 53, N-(4-fluorophenyl)-2-methyl-5-(3-(m-tolyl)imidazo[1,5-a]pyrazin-8-yl)benzamide] came in with a concentration for a half-maximal effect (EC50) of 2380 nM.

`Cc1ccc(-c2nccn3c(-c4ccccn4)ncc23)cc1C(=O)Nc1ccc(F)cc1` [Example 54, N-(4-fluorophenyl)-2-methyl-5-(3-(pyridin-2-yl)imidazo[1,5-a]pyrazin-8-yl)benzamide] displayed an EC50 of 2630 nM.

On to `O=C(Nc1ccc(F)cc1)c1cc(-c2cccn3c(-c4cccc(F)c4F)ncc23)ccc1OC(F)(F)F` [Example 55], for which the concentration for a half-maximal effect (EC50) came to 15 nM.

For the molecule `Cc1cnc(-c2cccn3c(-c4cccc(F)c4F)ncc23)cc1C(=O)Nc1ccc(F)cc1` [Example 56, 2-(3-(2,3-difluorophenyl)imidazo[1,5-a]pyridin-8-yl)-N-(4-fluorophenyl)-5-methylisonicotinamide], the EC50 came to 85.7 nM.

In turn, `Cc1ccc(-c2cccn3c(-c4cccc(F)c4F)ncc23)nc1C(=O)Nc1ccc(F)cc1` [Example 57] yielded an EC50 of 76.8 nM. The EC50 values of the last two molecules are within 1.5-fold of each other.

`Cc1ncc(-c2cccn3c(-c4cccc(F)c4F)ncc23)cc1C(=O)Nc1ccc(OC(F)(F)F)cc1` [Example 58, 5-(3-(2,3-difluorophenyl)imidazo[1,5-a]pyridin-8-yl)-2-methyl-N-(4-(trifluoromethoxy)phenyl)nicotinamide]: a half-maximal effect (EC50) was put at 110 nM.

As for `Cc1ncc(-c2cccn3c(-c4cccc(F)c4F)ncc23)cc1C(=O)Nc1ccc(C#N)c(C(F)(F)F)c1` [Example 59, N-(4-cyano-3-(trifluoromethyl)phenyI)-5-(3-(2,3-difluorophenyl)imidazo[1,5-a]pyridin-8-yl)-2-methylnicotinamide], a half-maximal response (EC50) required 227 nM.

Consider `Cc1ncc(-c2cccn3c(-c4cccc(F)c4F)ncc23)cc1C(=O)Nc1ccc(F)cn1` [Example 60, 5-(3-(2,3-difluorophenyl)imidazo[1,5-a]pyridin-8-yl)-N-(5-fluoropyridin-2-yl)-2-methylnicotinamide], for which the EC50 worked out at 21.1 nM.

For the molecule `Cc1ncc(-c2cccn3c(-c4cccc(F)c4F)cnc23)cc1C(=O)Nc1ccc(Cl)cc1` [Example 61, N-(4-chlorophenyl)-5-(3-(2,3-difluorophenyl)imidazo[1,2-a]pyridin-8-yl)-2-methylnicotinamide], the 50% effective concentration (EC50) is 29.9 nM.

The record behind these values is patent US11040033B2 (Gilead Sciences, Inc., priority 2017, dated 2021).
